Two compounds from patent publication US9758477B2, “Sulfamoylbenzamide derivatives as antiviral agents against HBV infection” (priority 2011, dated 2017) can be followed below.

For one series, the system named is AML12HBV10 cells. Nature of the series: Cytotoxicity in AML12HBV10 cells, MTT assay. It counts as cell-based, murine. Particulars: Table 10, AML12HBV10 cells, unit inferred; read-out: AML12HBV10 CC50. As to the method:
(§1) Determination of cytotoxicity of compounds of the disclosure in AML12HBV10 cells: To determine the cytotoxicity of the compounds, AML12HBV10 cells were seeded into 96-well plates at a density of 2×10^4 cells per well and cultured in DMEM/F12 media with 10% fetal bovine serum in the absence of tetracycline to allow pgRNA transcription and HBV DNA replication. One day after seeding, cells were left untreated or treated with a serial dilution of testing compounds, ranging from 50 μM to 0.39 μM, for 48 hours. The cell viability was measured by a MTT assay, following procedure provided by the manufacturer (Promega). The cytotoxicity of a compound was expressed as the concentration of compound that reduces the viability of the cells by 50% (CC50).
In general terms: Formazan colour is commonly taken as a measure of viable cells.

Series [1] in a line: Cytotoxicity in AML12HBV10 cells, MTT assay. It counts as cell-based, murine. Conditions: mouse; AML12HBV10 cells, 48 hours, MTT; read-out: CC50 (cellular toxicity). Here is the method:
as §1

In series [2] the test system is HBV. The series can be described thus: Antiviral efficacy in AML12HBV10 cells, HBV DNA by dot-blot hybridization. The series is classed as cell-based, Hepatitis B virus (HBV). Particulars: Hepatitis B virus. Here is the method: The antiviral efficacy of the compounds of the disclosure, as presented in Tables 5, 6, 7, 8 and 9, were determined in AML12HBV10 cells. AML12HBV10 is an immortalized murine hepatocyte (AML12)-derived stable cell line that supports robust HBV replication in a tetracycline inducible manner (Xu et al.). The cells were seeded into 96 well plates at a density of 2×10^4 cells per well and cultured in DMEM/F12 media with 10% fetal bovine serum in the absence of tetracycline to allow pgRNA transcription and HBV DNA replication. One day after seeding, cells were left untreated or treated with a serial dilution of testing compounds, ranging from 50 μM to 0.39 μM, for 48 hours. Cells were then lysed by adding into each well of 100 μl lysis buffer containing 10 mM Tris-HCl (pH 7.6), 1 mM EDTA, 100 mM NaCl and 1% NP-40 and incubated at 37° C. for 30 minutes. Half amount (50 μl) of cell lysate from each well was combined with equal volume of denaturing solution containing 0.5N NaOH and 1.5M NaCl. After 5 minute incubation, 100 μl of neutralization solution (IM Tris-HCl, pH 7.4, 1.5M NaCl) was added into each well. The denatured cell lysates (totally 200 μl) were applied onto Nylon membrane using 96-well dot-blot manifold (Biorad). HBV DNA in the cell lysates were determined by dot-blot hybridization with alpha-^32P-UTP-labelled riboprobe specific for HBV minus strand DNA. The antiviral efficacy of a compound of the disclosure was expressed as the concentration that reduces the amount of HBV DNA by 50% (EC50).

A short description of series [3]: Cytotoxicity in HepDES19 cells, MTT assay. It counts as cell-based. Conditions: human, Table 10, HepDES19 cells, unit inferred. Here is the method: as §1, with “human hepatoma-derived cell lines, HepDES19” for “AML12HBV10 cells: To determine the cytotoxicity of the compounds, AML12HBV10”, “2×10^4” left out, “tetracycline.” for “tetracycline to allow pgRNA transcription and HBV DNA replication.”, “6 days.” for “48 hours.”

In series [4] the test system is HBV. Nature of the series: Antiviral activity in HepDES19 cells, core-associated HBV DNA by Southern blot hybridization. The series is classed as cell-based. Conditions: Hepatitis B virus, 144 h, Table 10, HepDES19 cells, 6 days, unit inferred; for EC90: HBV DNA reduced by 90%; for EC50: Southern blot. As to the method:
FIG. 2 and Table 10, in human hepatoma-derived cell lines: To further confirm the antiviral activity of the compounds of the disclosure against HBV in human hepatocyte-derived cells, HepDES19 cells, a human hepatoma cell line supporting HBV replication in a tetracycline inducible manner (Guo et al., 2007), seeded into 12-well plates at a density of 5×10^5 cells per well and cultured in DMEM/F12 media with 10% fetal bovine serum and 1 μg/ml tetracycline. Two days after seeding, the cells were mock-treated or treated with a serial dilution of compounds of the disclosure, ranging from 10 μM to 0.018 μM, for 6 days in the absence of tetracycline. Upon the completion of treatment, cells were lysed by adding into each well of the 12-well plates 0.5 ml of lysis buffer containing 10 mM Tris-HCl (pH 8.0), 1 mM EDTA, 1% NP40 and 2% sucrose and incubating at 37° C. for 10 minutes. Cell debris and nuclei were removed by centrifugation and the supernatant was mixed with 130 μl of 35% polyethylene glycol (PEG) 8000 containing 1.5 M NaCl. After 1 hour incubation in ice, viral nucleocapsids were pelleted by centrifugation at 6,000×g for 5 min at 4° C., followed by 1 hour digestion at 37° C. in 400 μl of digestion buffer containing 0.5 mg/ml pronase (Calbiochem), 0.5% SDS, 150 mM NaCl, 25 mM Tris-HCl (pH 8.0) and 10 mM EDTA. The digestion mixture was extracted twice with phenol and DNA was precipitated with ethanol, dissolved in TE buffer (10 mM Tris-HCl, pH 8.0; 0.1 mM EDTA). One half of the DNA sample from each well was resolved by electrophoresis into a 1.5% agarose gel. The gel was then subjected to denaturation in a solution containing 0.5 M NaOH and 1.5 M NaCl, followed by neutralization in a buffer containing 1 M Tris-HCl (pH7.4) and 1.5 M NaCl. DNA was then blotted onto Hybond-XL membrane (GE Health care) in 20×SSC buffer. The amounts of cytoplasmic HBV core-associated HBV DNA were determined by Southern blot hybridization and the antiviral efficacy of a compound was expressed as its concentration that reduce the amount of HBV DNA by 50% (EC50) or 90% (EC90).

[5] abbreviates: AML12HBV10 cells, 48 hours, concentration reducing HBV DNA by 50%, read-out: EC50 (antiviral activity by dot blot hybridization).
Where [6] appears, read: Table 10, AML12HBV10 cells, unit inferred, read-out: AML12HBV10 EC50.

As to `CCC(C)NS(=O)(=O)c1ccc(F)c(C(=O)Nc2ccc(F)c(F)c2)c1` (centres unmarked) [DVR-23, 5-sec-butylsulfamoyl-N-(3,4-difluoro-phenyl)-2-fluoro-benzamide], the CC50 with AML12HBV10 cells is more than 50000 nM. For the same compound, the 50% cytotoxic concentration (CC50) at 48 h in series [1] is more than 50000 nM. For the same compound, the concentration for a half-maximal effect (EC50) with HBV [2] (setting [5]) is 390 nM; with HBV [2] (setting [6]), 390 nM; in the series with HBV [4], 280 nM. Besides, the cytotoxic concentration (CC50) at 6 days in series [3] is more than 50000 nM. For the same compound, the EC90 in the series with HBV [4] turned out to be 860 nM.

Regarding `O=C(Nc1ccc(F)c(F)c1)c1cc(S(=O)(=O)NC2CCCC2)ccc1F` [DVR-56, 5-cyclopentylsulfamoyl-N-(3,4-difluoro-phenyl)-2-fluoro-benzamide], the CC50 in the series on AML12HBV10 cells is more than 50000 nM. Further, the CC50 at 48 h in series [1] was more than 50000 nM. Also, the EC50 in the series on HBV [2] (setting [5]) worked out at 390 nM; with HBV [2] (setting [6]) it was 390 nM; in the series on HBV [4], 420 nM. The same compound showed a CC50 at 6 days in series [3] of more than 50000 nM. Also, in the series with HBV [4], the EC90 was 1850 nM.

As usually defined, the CC50 is the concentration at which the toxic effect on the cells reaches its halfway point. By EC50 is commonly meant the concentration needed to bring the measured effect to its halfway point. By EC90 is commonly meant the concentration at which the effect reaches the 90% level.
